Data reported in patent US20230233569A1 (Revolution Medicines, Inc., priority 2020, published 2023).
Read-outs that look alike come from different tables or passages of the source.

Columns and labels:
Assay in all cases: Disruption of BRAF RBD interaction with Ras (FRET / MOA assay, with Cyclophilin A)
Assay type in all cases: biochemical
[1] = target: KRAS G12C (Homo sapiens, UniProt P01116+P62937, G12C); settings: KRAS G12C; read-out: KRAS G12C FRET data IC50
Source text: (§1) This protocol may also be executed substituting other Ras proteins or nucleotides.
(§2) The purpose of this biochemical assay was to measure the ability of test compounds to facilitate ternary complex formation between a nucleotide-loaded K-Ras isoform and Cyclophilin A; the resulting ternary complex disrupts binding to a BRAF^RBD construct, inhibiting K-Ras signaling through a RAF effector. Data is reported as IC50 values.
(§3) Compound was present in plate wells as a 10-point 3-fold dilution series starting at a final concentration of 30 μM. After incubation at 25° C. for 3 hours, a mixture of Anti-His Eu-W1024 and anti-GST allophycocyanin was then added to assay sample wells at final concentrations of 10 nM and 50 nM, respectively, and the reaction incubated for an additional 1.5 hours. […] Compounds that facilitate disruption of a K-Ras:RAF complex were identified as those eliciting a decrease in the TR-FRET ratio relative to DMSO control wells.
as §2, with “BRAF^RBDD” for “BRAF^RBD”

[2] = target: KRAS G13C (Homo sapiens, UniProt P01116+P62937, G13C)
Source text: as §1, §2, §3
as §2, with “BRAF^RBDD” for “BRAF^RBD”

[3] = target: KRAS G12V (Homo sapiens, UniProt P01116+P62937, G12V); settings: KRAS G12V; read-out: KRAS G12V FRET data IC50
Source text: as §1, §2, §3
as §2, with “BRAF^RBDD” for “BRAF^RBD”

[4] = target: KRAS G12S (Homo sapiens, UniProt P01116+P62937, G12S); settings: read-out: KRAS G12S FRET data, IC50
Source text: as §1, §2, §3
as §2, with “BRAF^RBDD” for “BRAF^RBD”

[5] = target: KRAS G12D (Homo sapiens, UniProt P01116+P62937, G12D); settings: read-out: KRAS G12D FRET data, IC50
Source text: as §1, §2, §3
as §2, with “BRAF^RBDD” for “BRAF^RBD”

[6] = target: KRAS WT (Homo sapiens, UniProt P01116+P62937); settings: KRAS WT; read-out: KRAS WT FRET data IC50
Source text: as §1, §2, §3
as §2, with “BRAF^RBDD” for “BRAF^RBD”

[7] = KRAS G13C, read-out: KRAS G13C FRET data IC50

Sequence of KRAS WT (P01116 1-169 isoform P01116-2 limits assumed): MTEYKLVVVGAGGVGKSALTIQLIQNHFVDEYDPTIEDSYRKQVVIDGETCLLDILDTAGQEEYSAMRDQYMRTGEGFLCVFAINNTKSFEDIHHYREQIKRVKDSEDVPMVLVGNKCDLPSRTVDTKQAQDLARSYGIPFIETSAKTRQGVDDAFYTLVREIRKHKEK
Sequence of KRAS WT (P62937 whole entry): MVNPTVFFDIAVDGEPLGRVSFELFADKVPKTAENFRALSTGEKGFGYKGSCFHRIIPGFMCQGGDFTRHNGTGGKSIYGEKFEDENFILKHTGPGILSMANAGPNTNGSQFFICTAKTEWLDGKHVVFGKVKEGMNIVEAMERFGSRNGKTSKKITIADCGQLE
Sequence of KRAS G13C (P01116 1-169 isoform P01116-2 G13C): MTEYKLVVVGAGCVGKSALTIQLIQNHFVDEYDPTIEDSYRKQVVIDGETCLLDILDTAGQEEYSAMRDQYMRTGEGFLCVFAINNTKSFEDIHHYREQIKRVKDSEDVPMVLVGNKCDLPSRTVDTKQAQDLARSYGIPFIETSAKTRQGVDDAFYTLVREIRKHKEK
Sequence of KRAS G13C (P62937 whole entry): as the sequence (P62937 whole entry) above
Sequence of KRAS G12D (P01116 1-169 isoform P01116-2 G12D limits assumed): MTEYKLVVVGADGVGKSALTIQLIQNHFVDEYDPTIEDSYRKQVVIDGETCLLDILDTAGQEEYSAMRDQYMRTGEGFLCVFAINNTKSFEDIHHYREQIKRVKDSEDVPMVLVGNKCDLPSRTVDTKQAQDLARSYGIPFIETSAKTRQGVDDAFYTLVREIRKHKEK
Sequence of KRAS G12D (P62937 whole entry): as the sequence (P62937 whole entry) above
Sequence of KRAS G12C (P01116 1-169 isoform P01116-2 G12C): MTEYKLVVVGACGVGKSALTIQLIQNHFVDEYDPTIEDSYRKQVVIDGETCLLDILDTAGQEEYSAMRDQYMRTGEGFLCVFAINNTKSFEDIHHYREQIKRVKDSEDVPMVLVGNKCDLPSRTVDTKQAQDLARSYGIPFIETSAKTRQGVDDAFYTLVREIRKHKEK
Sequence of KRAS G12C (P62937 whole entry): as the sequence (P62937 whole entry) above
Sequence of KRAS G12V (P01116 1-169 isoform P01116-2 G12V limits assumed): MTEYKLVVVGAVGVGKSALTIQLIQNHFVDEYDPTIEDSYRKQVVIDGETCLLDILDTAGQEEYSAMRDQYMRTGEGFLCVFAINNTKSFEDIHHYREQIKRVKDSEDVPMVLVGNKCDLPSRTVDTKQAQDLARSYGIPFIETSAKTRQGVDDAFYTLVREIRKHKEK
Sequence of KRAS G12V (P62937 whole entry): as the sequence (P62937 whole entry) above
Sequence of KRAS G12S (P01116 1-169 isoform P01116-2 G12S limits assumed): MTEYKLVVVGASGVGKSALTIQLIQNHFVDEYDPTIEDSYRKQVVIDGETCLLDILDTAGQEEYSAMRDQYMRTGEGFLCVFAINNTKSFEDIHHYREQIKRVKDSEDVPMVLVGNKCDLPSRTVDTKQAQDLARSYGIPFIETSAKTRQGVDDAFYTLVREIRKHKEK
Sequence of KRAS G12S (P62937 whole entry): as the sequence (P62937 whole entry) above

Row | Compound | IC50 [1] [nM] | IC50 [2, 7] [nM] | IC50 [3] [nM] | IC50 [4] [nM] | IC50 [5] [µM] | IC50 [6] [nM] | IC50 ([2]; read-out: KRAS G13C FRET data, IC50) [nM]
1 | C=CC(=O)N1CC[C@H](C(=O)N(C)[C@H](C(=O)N[C@H]2Cc3cc(O)cc(c3)-c3ccc4c(c3)c(c(-c3cccnc3CN(C)C)n4CC)CC(C)(C)COC(=O)[C@@H]3CCCN(N3)C2=O)C(C)C)C1 [Example A092] | 100 to 1000 | 1000 to 10000 | 1000 to 10000 | 1000 to 10000 | > 10 | 1000 to 10000 | –
2 | CCn1c(-c2cccnc2COC)c2c3cc(ccc31)-c1cc(O)cc(c1)C[C@H](NC(=O)[C@H](C(C)C)N(C)C(=O)C1CN(C(=O)C#CCN(C)C)C1)C(=O)N1CCC[C@H](N1)C(=O)OCC(C)(C)C2 [Example A097] | < 10 | < 10 | 100 to 1000 | 100 to 1000 | 1 to 10 | 100 to 1000 | –
3 | C=CC(=O)N1CC[C@H](C(=O)N(C)[C@H](C(=O)N[C@H]2Cc3cc(O)cc(c3)-c3ccc4c(c3)c(c(-c3ccc(CN5CCCC5)cc3)n4CC)CC(C)(C)COC(=O)[C@@H]3CCCN(N3)C2=O)C(C)C)C1 [Example A010] | 100 to 1000 | 1000 to 10000 | 1000 to 10000 | 1000 to 10000 | > 10 | 1000 to 10000 | –
4 | C=CC(=O)N1CC[C@H](C(=O)N(C)[C@H](C(=O)N[C@H]2Cc3cc(O)cc(c3)-c3ccc4c(c3)c(c(-c3ccncc3COC)n4CC)CC(C)(C)COC(=O)[C@@H]3CCCN(N3)C2=O)C(C)C)C1 [Example A091] | 10 to 100 | 100 to 1000 | 100 to 1000 | 100 to 1000 | 1 to 10 | 100 to 1000 | –
5 | CCn1c(-c2cccnc2COC)c2c3cc(ccc31)-c1cc(O)cc(c1)C[C@H](NC(=O)[C@H](C(C)C)N(C)C(=O)[C@H]1CCN(C(=O)/C=C/CN3CCN(C)CC3)C1)C(=O)N1CCC[C@H](N1)C(=O)OCC(C)(C)C2 [Example A072] | 10 to 100 | 100 to 1000 | 100 to 1000 | 100 to 1000 | 1 to 10 | 100 to 1000 | –
6 | C=C(C)C(=O)N1CC(N(C)C(=O)N(C)[C@H](C(=O)N[C@H]2Cc3nc(cs3)-c3ccc4c(c3)c(c(-c3cccnc3[C@H](C)OC)n4CC)CC(C)(C)COC(=O)[C@@H]3CCCN(N3)C2=O)C(C)C)C1 (atropisomer, axis not shown) [Example A360] | – | – | – | – | 1 to 10 | – | –
7 | C=CC(=O)N1CC[C@H](C(=O)N(C)[C@H](C(=O)N[C@H]2Cc3cc(O)cc(c3)-c3ccc4c(c3)c(c(-c3ccc(CC(=O)O)cc3)n4CC)CC(C)(C)COC(=O)[C@@H]3CCCN(N3)C2=O)C(C)C)C1 [Example A021] | 1000 to 10000 | > 10000 | > 10000 | > 10000 | > 10 | > 10000 | –
8 | CCn1c(-c2cccnc2[C@H](C)OC)c2c3cc(ccc31)-c1csc(n1)C[C@H](NC(=O)[C@H](C(C)C)N(C)C(=O)O[C@H]1CCN(C)C1)C(=O)N1CCC[C@H](N1)C(=O)OCC(C)(C)C2 [Example A173] | – | – | – | – | – | – | 1000 to 10000
9 | C=CC(=O)N1CCN(C(=O)N(C)[C@H](C(=O)N[C@H]2Cc3cc(O)cc(c3)-c3ccc4c(c3)c(c(-c3ccccc3CCOC)n4CC)CC(C)(C)COC(=O)[C@@H]3CCCN(N3)C2=O)C(C)C)CC1 [Example A018] | 100 to 1000 | 100 to 1000 | 1000 to 10000 | 1000 to 10000 | > 10 | 1000 to 10000 | –
10 | C=CC(=O)N1CC[C@H](C(=O)N(C)[C@H](C(=O)N[C@H]2Cc3cc(O)cc(c3)-c3ccc4c(c3)c(c(-c3ccc(CN(C)C)cc3)n4CC)CC(C)(C)COC(=O)[C@@H]3CCCN(N3)C2=O)C(C)C)C1 [Example A003] | 100 to 1000 | 1000 to 10000 | 1000 to 10000 | 1000 to 10000 | > 10 | > 10000 | –
